Here are results for eight molecules from patent US11274079B2 (DALIAN INSTITUTE OF CHEMICAL PHYSICS, CHINESE ACADEMY OF …, priority 2018, dated 2022).

Experiment [1] deals with isolated tracheal smooth muscle. The experiment can be described thus: Carbachol-induced contraction of isolated tracheal strip. The note with it: Cavia porcellus, read-out: IC50, diastolic effect on isolated tracheal smooth muscle.
Description: 1. Experimental Materials
2. Preparation of Tracheal Strip
The guinea pig is put to death by hammering it on the head, the chest cavity is quickly opened, and trachea is carefully isolated. […] The connective tissue and fat around the trachea are gently removed, and the trachea segment is quickly suspended and cut into tracheal strips with a blade (2-3 mm in width and 20 mm in length). […] The upper end of the tracheal strip is connected to a muscle tension transducer, and the load is adjusted to 1.5 g. The biological signal processing system is used to record the changes in muscular tension of tracheal smooth muscle. The perfusate is replaced once every 15 min, and the experiment is started after the tension is stabilized for 1 h. After each experiment, the smooth muscle is rinsed 3 to 5 times, and the next experiment is carried out after stabilization to the baseline.
3. Effects of Compounds Tested on Contraction of Isolated Tracheal Strip in Guinea Pig
After incubation of isolated tracheal for 1 h, 10 μm/L of carbachol is added to induce the minimum concentration (the concentration obtained from the dose-effect curve of carbachol) of the maximum tracheal smooth muscle contraction, and the changes in tension of the tracheal strip within 5 min are recorded. When the tension of the tracheal smooth muscle reaches the highest point, the compounds tested with a concentration of 1 nm/L are added, and the changes in tension of the tracheal strip within 5 min are recorded. […] Then, the concentration difference is decreased, that is, the concentration is increased by three or four times to repeat the above administration, which makes the tension decrease continuously to the base value (initial load). The changes in tension of the tracheal stop within 5 min are recorded. The dose-effect relationship between the compounds tested and the contractile activity of the isolated tracheal smooth muscle in the guinea pig is obtained. The curve of the changes in tension of the tracheal smooth muscle in each group is recorded and the inhibition rate is calculated. After repeated experiments, IC50 value of each compound tested is calculated by taking points respectively.
The dose-effect relationship between solvent (DMSO) control group and the contractile activity of the isolated tracheal smooth muscle in the guinea pig is recorded. Inhibition Rate=(Tension before Administration−Tension after Administration)/Tension before Administration
A further experiment concerns guinea pigs. Kind of experiment: Acetylcholine chloride/histamine spray-induced asthma, incubation period. Type of experiment: in vivo, guinea pig. Conditions: for asthma incubation period: 0.2 mM in normal saline sprayed 10 min, challenge after 10 min, recorded as 240 s if no convulsion and fall; for efficacy in asthma model, in words: 0.2 mM spray. As for the experimental part: On the first day, guinea pigs are placed in a 38×38×38 cm (about 55 L) of home-made container with an atomizing nozzle having a diameter of about 3 cm above the side wall. Ultrasonic atomizer (YUWELL, model 402AI) is used to spray normal saline containing acetylcholine chloride (20 g/L) and histamine (1 g/L) for 15 s. The incubation period of asthma of guinea pigs (also is called asthma incubation period, which is the time from the end of the spray to asthma attack, extreme breathing difficulty until convulsion and fall) is recorded after the cessation of spraying. Animals with an incubation period of less than 120 s are qualified sensitive animals.
2. Experimental Processes
On the second day, the qualified animals are selected for experiments, wherein one group (comprising 4 guinea pigs) is used as the control group, one group (comprising 4 guinea pigs) is experimented with positive medicine […] and one group (comprising 10 guinea pigs) is experimented with the drug to be tested. The animals are placed in a container, and sprayed with normal saline, tiotropium bromide and the compound to be tested. Both tiotropium bromide and the compound to be tested are soluble in normal saline at a concentration of 0.2 mM. After spraying for 10 min, the guinea pigs are taken out and put into another container of the same size. After 10 min, normal saline containing acetylcholine chloride (20 g/L) and histamine (1 g/L) is sprayed into the container for 15 s. The incubation periods of asthma of the guinea pigs are observed and recorded. If there is no convulsion and fall after 240 s, the incubation period is recorded as 240 s.

A further experiment addresses T1, M3 receptor (Homo sapiens, UniProt P20309).
T1 construct: HT-29 cell model endogenously highly expressing the M3 receptor; endogenous in cells; host or cells: HT-29
Kind of experiment: DMR assay, antagonism of acetylcholine in HT-29 cells endogenously expressing the M3 receptor. Type of experiment: cell-based. The note with it: HT-29 cells, DMR, acetylcholine 16 μM, 1 h pretreatment, time point 30 min. As for the experimental part: (§1) The present invention relates to the antagonistic activity of the compound against the muscarinic receptor, which is primarily assessed by a cell-level dynamic mass redistribution (DMR) assay method. All tests are carried out on Epic platform, wherein the target model of the muscarinic receptor M1 is the CHO-K1 ceil model stably transfecting the M1 receptor, the target model of M3 is the HT-29 cell model endogenously highly expressing the M3 receptor, and the selected probe molecule is acetylcholine. Tire probe molecule acetylcholine is dissolved in water, while all other compounds are dissolved in DMSO.
The inoculated cell plate is placed in a cell incubator for culture for 20 h until the cell growth and fusion degree reaches about 95%, and the activity assay is carried out. The culture medium is sucked from the cultured cells, the buffer salt specified by the test is added with a volume of 30 μL per orifice and is stabilized for 1 h. After the baseline is stable, a 2-min baseline is established, and different concentrations of compounds to be tested are added to test the cultured cells for 1 h.

A further experiment deals with T2, M1 receptor (Homo sapiens, UniProt P11229).
T2 construct: expressed in transfected cells; host or cells: CHO-K1
T2 sequence (P11229 1-460): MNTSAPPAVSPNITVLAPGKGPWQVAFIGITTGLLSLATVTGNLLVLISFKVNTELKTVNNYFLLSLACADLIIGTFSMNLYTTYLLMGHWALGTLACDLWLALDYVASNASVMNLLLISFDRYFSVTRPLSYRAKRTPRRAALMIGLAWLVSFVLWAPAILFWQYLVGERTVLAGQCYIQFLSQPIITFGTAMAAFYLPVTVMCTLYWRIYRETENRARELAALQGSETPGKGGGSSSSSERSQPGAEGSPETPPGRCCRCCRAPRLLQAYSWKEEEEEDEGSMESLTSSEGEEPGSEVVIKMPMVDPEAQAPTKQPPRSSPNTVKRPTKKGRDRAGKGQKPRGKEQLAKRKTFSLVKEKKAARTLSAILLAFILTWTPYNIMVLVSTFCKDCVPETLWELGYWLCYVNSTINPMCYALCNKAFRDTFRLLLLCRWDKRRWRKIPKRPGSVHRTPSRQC
The experiment can be described thus: DMR assay, antagonism of acetylcholine in CHO-K1 cells stably transfecting the M1 receptor. Conditions: CHO-K1-M1 cells, DMR, acetylcholine 1 μM, 1 h pretreatment, time point 5 min. The experiment is classed as cell-based. Here is the method: as §1
The inoculated cell plate is placed in a cell incubator for culture for 12 h until the cell growth and fusion degree reaches about 95%, and the activity assay is carried out. The culture medium is sucked from the cultured ceils, the buffer salt specified by the test is added with a volume of 30 μL per orifice and is stabilized for 1 h. After the baseline is stable, a 2-min baseline is established, and different concentrations of compounds to be tested are added to test the cultured cells for 1 h. After the cells are pretreated with the compounds to be tested for 1 h, the 2-min baseline is re-established, and acetylcholine having a concentration of 1 μM is added to test the cultured cells for 1 h.

T1 sequence (P20309 whole entry): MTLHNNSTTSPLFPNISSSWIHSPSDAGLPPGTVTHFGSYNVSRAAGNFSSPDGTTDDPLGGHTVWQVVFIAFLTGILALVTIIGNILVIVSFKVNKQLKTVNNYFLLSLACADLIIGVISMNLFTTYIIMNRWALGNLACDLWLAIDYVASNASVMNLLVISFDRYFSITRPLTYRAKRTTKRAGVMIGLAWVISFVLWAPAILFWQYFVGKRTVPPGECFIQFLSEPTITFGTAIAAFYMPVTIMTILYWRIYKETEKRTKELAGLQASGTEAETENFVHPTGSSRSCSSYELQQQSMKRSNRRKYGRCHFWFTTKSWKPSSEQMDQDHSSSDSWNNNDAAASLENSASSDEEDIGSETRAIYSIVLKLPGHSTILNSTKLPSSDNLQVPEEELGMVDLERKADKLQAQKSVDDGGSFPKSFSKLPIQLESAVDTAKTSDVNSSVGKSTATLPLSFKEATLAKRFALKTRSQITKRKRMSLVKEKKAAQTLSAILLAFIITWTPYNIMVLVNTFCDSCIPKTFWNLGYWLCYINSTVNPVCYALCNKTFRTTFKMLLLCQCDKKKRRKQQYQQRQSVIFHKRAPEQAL

`C[N+]1(C)[C@@H]2C[C@@H](OC(=O)C(O)(c3cccs3)c3cccs3)C[C@H]1[C@@H]1O[C@@H]12.[Br-]` [Tiotropium Bromide, reference compound]: the IC50 (usually the midpoint of a concentration-inhibition curve) in experiment [1] was 33 nM. Besides, in the experiment on guinea pigs, the asthma incubation period came out at 238.9 ± 5.0 s.
As to `Cc1ccc(O)c(C(CC2CCCC[N+]2(C)C)c2ccccc2)c1` (single isomer, unassigned) [I-4a-Br, 2-[2-(2-hydroxy-5-methyl-phenyl)-phenethyl]-N,N-dimethylpiperidine Bromide], the figures for the IC50 (in experiment [1]; on M3 receptor; on M1 receptor) were 13.3 nM, 35.5 ± 13.9 nM and 36.2 ± 6.1 nM, respectively.
`C[N+]1(C)CCCCC1CC(c1ccccc1O)c1ccccc1O.[Br-]` (centres unmarked) [I-3-1-Br, 2-[2,2-bis(2-hydroxy-phenyl)ethyl]-N,N-dimethylpiperidine Bromide]: in the experiment with guinea pigs, the asthma incubation period amounted to 240 s and the “efficacy in asthma model, in words” value is recorded as “good efficacy”. Further, the IC50 at M3 receptor was 6 ± 1.1 nM. In addition, at M1 receptor, the IC50 is 18.5 ± 3.6 nM.
As to `Cc1ccc(O)c(C(CC2CCCC[N+]2(C)C)c2ccccc2)c1.[Br-]` (centres unmarked) [I-4a-1-Br, 2-[2-(2-hydroxy-5-methyl-phenyl)-phenethyl]-N,N-dimethylpiperidine Bromide], the asthma incubation period in the experiment on guinea pigs amounted to 240 s. Further, the “efficacy in asthma model, in words” value in the experiment on guinea pigs was “good efficacy”. In addition, the IC50 on M3 receptor was found to be 39.3 ± 10.9 nM; at M1 receptor it was 28.8 ± 11.3 nM.
As for `Cc1ccc(O)c(C(CC2CCCC[N+]2(C)C)c2ccccc2F)c1` (centres unmarked) [I-7, 2-[2-(2-fluorophenyl)-2-(2-hydroxy-5-methyl-phenyl)-ethyl]-N,N-dimethylpiperidine Bromide], the IC50 is 33.4 nM in experiment [1], 103 ± 10 nM at M3 receptor and 320 ± 20 nM at M1 receptor.
Take `C[N+]1(C)CCCCC1CC(c1ccccc1)c1ccccc1O` (centres unmarked) [I-2a-Br, 2-[2-(2-hydroxy-phenyl)-phenethyl]-N,N-dimethylpiperidine Bromide]: the values for the IC50 (in experiment [1]; at M3 receptor; on M1 receptor) were 6.4 nM, 33.8 ± 3.6 nM and 53.8 ± 4.6 nM, respectively.
Consider `C[N+]1(C)CCCCC1CC(c1ccccc1O)c1ccccc1O` (racemic) [I-3-Br, 2-[2,2-bis(2-hydroxy-phenyl)ethyl]-N,N-dimethylpiperidine Bromide], for which the IC50 in experiment [1] came to 4.1 nM; on M3 receptor, 15.4 ± 2.9 nM; at M1 receptor, 23.4 ± 6.6 nM.
As to `C[N+]1(C)CCCCC1CC(c1ccccc1O)c1ccccc1O.[Br-]` (centres unmarked) [I-3-2-Br, 2-[2,2-bis(2-hydroxy-phenyl)ethyl]-N,N-dimethylpiperidine Bromide], in the experiment on guinea pigs, the asthma incubation period was 233.1 ± 21.8 s and the “efficacy in asthma model, in words” value is “good efficacy”. At M3 receptor, the IC50 came out at 11 ± 3.6 nM. Moreover, the IC50 on M1 receptor was 43.7 ± 15.3 nM.
